Among the data in ChEMBL document CHEMBL4814003, “Novel dual-mode antitumor chlorin-based derivatives as potent photosensitizers and histone deacetylase inhibitors for photodynamic therapy and chemotherapy” (Eur J Med Chem, 2021) are IC50, Activity and Drug uptake values, retold here.

Molecules are shown by their SMILES.

Series [1] addresses T1, Protein deacetylase HDAC6 (Homo sapiens, UniProt Q9UBN7).
T1 sequence (Q9UBN7 whole entry): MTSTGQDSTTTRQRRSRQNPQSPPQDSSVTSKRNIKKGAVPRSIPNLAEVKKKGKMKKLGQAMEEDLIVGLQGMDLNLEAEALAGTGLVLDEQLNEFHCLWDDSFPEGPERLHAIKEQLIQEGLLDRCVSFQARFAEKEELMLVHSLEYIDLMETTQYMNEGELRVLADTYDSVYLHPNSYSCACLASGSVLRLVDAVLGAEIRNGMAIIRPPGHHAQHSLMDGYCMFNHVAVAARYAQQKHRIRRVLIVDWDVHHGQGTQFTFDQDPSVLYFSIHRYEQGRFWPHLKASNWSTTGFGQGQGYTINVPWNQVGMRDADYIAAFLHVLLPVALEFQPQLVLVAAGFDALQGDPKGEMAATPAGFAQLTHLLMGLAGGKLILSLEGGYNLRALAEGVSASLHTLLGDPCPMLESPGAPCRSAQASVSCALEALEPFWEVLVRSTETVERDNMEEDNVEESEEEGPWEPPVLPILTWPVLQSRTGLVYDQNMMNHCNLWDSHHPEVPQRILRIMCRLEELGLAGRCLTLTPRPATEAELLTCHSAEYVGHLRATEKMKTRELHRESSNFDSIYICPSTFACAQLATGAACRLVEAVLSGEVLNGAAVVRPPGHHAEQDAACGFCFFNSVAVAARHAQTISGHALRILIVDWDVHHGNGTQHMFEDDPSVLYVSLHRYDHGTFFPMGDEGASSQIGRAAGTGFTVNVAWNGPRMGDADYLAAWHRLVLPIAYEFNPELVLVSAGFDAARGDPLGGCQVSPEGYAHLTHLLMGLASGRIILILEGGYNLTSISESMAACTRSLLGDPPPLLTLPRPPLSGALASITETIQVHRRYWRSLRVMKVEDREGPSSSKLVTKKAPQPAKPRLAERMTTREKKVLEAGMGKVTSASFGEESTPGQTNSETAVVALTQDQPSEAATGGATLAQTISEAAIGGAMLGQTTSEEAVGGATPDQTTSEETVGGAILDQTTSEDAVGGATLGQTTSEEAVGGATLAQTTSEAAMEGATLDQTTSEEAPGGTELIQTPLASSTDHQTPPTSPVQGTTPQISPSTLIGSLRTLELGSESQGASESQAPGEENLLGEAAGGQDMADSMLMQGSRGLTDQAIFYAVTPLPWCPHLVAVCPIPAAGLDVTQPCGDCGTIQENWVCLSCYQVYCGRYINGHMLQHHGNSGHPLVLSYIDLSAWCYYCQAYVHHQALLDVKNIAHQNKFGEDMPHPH
Nature of the series: Inhibition of human recombinant HDAC6 using Ac-Leu-Gly-Lys(Ac)-AMC as substrate by measuring fluorescence intensity incubated for 30 mins by microplate reader assay.

The next series concerns HCT-116. Nature of the series: Phototoxicity in human HCT-116 cells assessed as reduction in cell viability irradiated 10 j/cm2 for 24 hrs followed by incubated for 24 hrs by CCK8 assay. It is filed as functional, cell-based. The following applies: HCT-116, light or radiation study. For orientation: Formazan colour is commonly taken as a measure of viable cells.
The test system of another series is A549. Nature of the series: Induction of reactive oxygen species generation in human A549 cells assessed as mean count value at 0.01 uM incubated for 24 hrs by DCFH-DA staining based fluorescence microscopy assay. It is filed as functional.
The target of another series is T2, Histone deacetylase 8 (Homo sapiens, UniProt Q9BY41).
T2 sequence (Q9BY41 whole entry): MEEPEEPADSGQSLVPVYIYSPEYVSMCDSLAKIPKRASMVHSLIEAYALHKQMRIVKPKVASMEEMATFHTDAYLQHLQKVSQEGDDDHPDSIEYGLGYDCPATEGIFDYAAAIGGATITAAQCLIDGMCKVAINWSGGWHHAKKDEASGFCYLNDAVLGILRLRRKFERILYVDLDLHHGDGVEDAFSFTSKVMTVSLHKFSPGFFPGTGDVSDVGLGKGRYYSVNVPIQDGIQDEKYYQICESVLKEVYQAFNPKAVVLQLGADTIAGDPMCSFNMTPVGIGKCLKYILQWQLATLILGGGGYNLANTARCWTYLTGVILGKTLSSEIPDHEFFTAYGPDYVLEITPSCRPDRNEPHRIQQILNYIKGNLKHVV
Nature of the series: Inhibition of human recombinant HDAC8 using Ac-Leu-Gly-Lys(Ac)-AMC as substrate by measuring fluorescence intensity incubated for 30 mins by microplate reader assay.

Series [2] in a line: Drug uptake in human A549 cells assessed as compound localization in nucleus at 0.1 uM measured after 24 hrs by laser confocal microscopy. The series is classed as ADME, subcellular. Conditions: a549, 24 h; call rule not given here.

By IC50 is commonly meant the concentration at which inhibition is half-maximal.

Regarding `C=Cc1c(C)c2cc3nc(c(C(=O)OC)c4[nH]c(cc5nc(cc1[nH]2)C(C)=C5CC)c(C)c4C(=O)OC)[C@@H](CCC(=O)Nc1ccc(C(=O)Nc2ccccc2N)cc1)[C@@H]3C`, the concentration for half-maximal inhibition (IC50) in series [1] is above 100 µM; in the series with HCT-116 it was 6 nM; at Histone deacetylase 8 it was above 100 µM. In the series with A549, the Activity is 770.81. Also, the Drug uptake entry in series [2] is recorded as “Not Active”.
